The source of these data is patent US7795267B2, “Bicyclic piperazine compound having TGR23 antagonistic activity” (Takeda Pharmaceutical Company Limited, priority 2003, dated 2010).

Test [1] relates to human colon cancer cell strain LS 174T. Description: Inhibition of DNA synthesis by cancer cells ([methyl-3H]-thymidine uptake under TGR23 ligand stimulation). Type of test: cell-based. To be noted: LS174T, LS 174T cells, 10 nM TGR23 ligand, read-out: IC50 value of the test compound in DNA synthesis. The procedure:
The cells of human colon cancer cell strain LS 174T (ATCC number: CL-188) were inoculated to a 96-well plate to a concentration of 20,000 cells per well, and then incubated in an EMEM medium (Nikken Biology and Medical Research Center) containing 0.05% bovine serum albumin not containing fatty acids (Sigma Chemical Co.) for 24 hours. After the 15-minute preincubation of these cells with the test compound, the cells were incubated in the presence of 10 nM of a TGR23 ligand [a human TGR23-2 ligand (1-20) represented by SEQ ID NO: 23 in WO 03/25179 was used] for 18 hours. Next, the cells were incubated in the presence of 0.25 μCi of [methyl-^3H]-thymidine (Amersham Biosciences KK) per well for 6 hours. The [methyl-^3H]-thymidine incorporated into the cancer cell DNA was measured in the following manner. After discarding the culture supernatant, 100 μL of ice-cold 10% trichloroacetic acid per well was added to the cells having taken up [methyl-^3H]-thymidine, and the cells were maintained on ice for 15 minutes. After discarding the trichloroacetic acid solution, 300 μL of a 0.2 N sodium hydroxide solution per well was added to the immobilized cells, and then the cells were kept warm overnight at 37° C. The amount of [methyl-^3H]-thymidine in the cell lysate was measured with a liquid scintillation counter.
The rate of DNA synthesis inhibition by the test compound was defined as the relative value obtained by subtracting the amount of [methyl-^3H]-thymidine uptake determined without stimulation from the uptake amount determined in the presence of the test compound and 10 nM of the TGR23 ligand, when the value obtained by subtracting the amount of [methyl-^3H]-thymidine uptake determined without stimulation from the uptake amount determined in the presence of the stimulation by 10 nM of the TGR23 ligand was taken as 100%. The IC50 value of the test compound in DNA synthesis was defined as the concentration of the test compound required to achieve 50% of the DNA synthesis inhibition rate.

Test [2] shares this test system. Description: Cell growth inhibition (MTT method, TGR23 ligand stimulation). The format is cell-based. To be noted: LS174T, LS 174T cells, 10 nM TGR23 ligand, 24 hours, read-out: IC50 value of the test compound for cell growth. On the procedure: The cells of human colon cancer cell strain LS 174T (ATCC number: CL-188) were inoculated in a 96-well plate to a concentration of 40,000 cells per well, and then the cells were incubated for 24 hours in an EMEM medium containing 0.05% bovine serum albumin not containing fatty acids. After a 15-minute pretreatment of these cells with the test compound, LS 174T cells were incubated for 24 hours in the presence of 10 nM of a TGR23 ligand [a human TGR23-2 ligand (1-20) represented by SEQ ID NO: 23 in WO 03/25179 was used]. Cell growth was evaluated by the MTT method. Cells were lysed by keeping them warm in an MTT solution (3-(4,5-dimethylthiazol-2-yl)-2,5-diphenyl tetrazolium bromide) at a final concentration of 0.5 mg/mL at 37° C. for 4 hours, and then in a 5% SDS solution at 37° C. for 24 hours. The absorbance of the cell lysate was measured using a 96-well plate reader. […]
The cell growth inhibitory rate of the test compound was defined as the relative value obtained by subtracting the absorbance change determined without stimulation from the absorbance change determined in the presence of the test compound and 10 nM of the TGR23 ligand, when the value obtained by subtracting the absorbance change determined without stimulation from the absorbance change determined in the presence of stimulation by 10 nM of the TGR23 ligand was taken as 100%. […]

For orientation: pIC50 means the IC50 on a negative log10 scale, so that one unit is a factor of ten.

pIC50: −log10 of the molar value.

As to `O=C(NCCN1CC=CCC1)N1CCN2C(=O)OC(c3ccccc3)(c3ccccc3)C2C1` (single isomer, unassigned; (+)) [Example 201, (+)-N-[2-(3,6-Dihydropyridin-1(2H)-yl)ethyl]-tetrahydro-3-oxo-1,1-diphenyl-3H-oxazolo[3,4-a]pyrazine-7(1H)-carboxamide], the negative-log IC50 (pIC50) in test [1] was not below 6.00.

On to `O=C(NCc1ccccc1)N1CCN2C(=O)OC(c3ccccc3)(c3ccccc3)C2C1` (centres unmarked) [Example 17, Tetrahydro-3-oxo-1,1-diphenyl-N-(phenylmethyl)-3H-oxazolo[3,4-a]pyrazine-7(1H)-carboxamide], for which the pIC50 in test [1] and in test [2] was not below 6.00 each time.

For `O=C(NCc1ccc(F)cc1)N1CCN2C(=O)OC(c3ccccc3)(c3ccccc3)C2C1` (centres unmarked) [Example 25, N-[(4-Fluorophenyl)methyl]-tetrahydro-3-oxo-1,1-diphenyl-3H-oxazolo[3,4-a]pyrazine-7(1H)-carboxamide], the negative logarithm of the IC50 (pIC50) in test [1] and in test [2] was not below 6.00 throughout.

Turning to `O=C(NCc1cccc(F)c1)N1CCN2C(=O)OC(c3ccccc3)(c3ccccc3)C2C1` (centres unmarked) [Example 28, N-[(3-Fluorophenyl)methyl]-tetrahydro-3-oxo-1,1-diphenyl-3H-oxazolo[3,4-a]pyrazine-7(1H)-carboxamide], in test [1], the negative-log IC50 (pIC50) was not below 6.00.

In the case of `O=C(NCCN1CC=CCC1)N1CCN2C(=O)OC(c3ccccc3)(c3ccccc3)C2C1` (centres unmarked) [Example 85, N-[2-(3,6-Dihydropyridin-1(2H)-yl)ethyl]-tetrahydro-3-oxo-1,1-diphenyl-3H-oxazolo[3,4-a]pyrazine-7(1H)-carboxamide], the pIC50 in test [1] is not below 6.00.

In the case of `O=C(NCc1ccsc1)N1CCN2C(=O)OC(c3ccccc3)(c3ccccc3)C2C1` (centres unmarked) [Example 96, Tetrahydro-3-oxo-1,1-diphenyl-N-[(3-thienyl)methyl]-3H-oxazolo[3,4-a]pyrazine-7(1H)-carboxamide], in test [1], the negative-log IC50 (pIC50) is not below 6.00.

With `O=C(NCc1ccc(F)c(F)c1)N1CCN2C(=O)OC(c3ccccc3)(c3ccccc3)C2C1` (centres unmarked) [Example 97, N-[(3,4-Difluorophenyl)methyl]-tetrahydro-3-oxo-1,1-diphenyl-3H-oxazolo[3,4-a]pyrazine-7(1H)-carboxamide], the pIC50 in test [1] is not below 6.00.

With `O=C(CCCN1CC=CCC1)N1CCN2C(=O)OC(c3ccccc3)(c3ccccc3)C2C1` (centres unmarked) [Example 138, 7-[4-(3,6-Dihydropyridin-1(2H)-yl)-1-oxobutyl]-hexahydro-1,1-diphenyl-3H-oxazolo[3,4-a]pyrazin-7(1H)-3-one], the pIC50 in test [1] is not below 6.00.

As to `O=C(NCCN1CCCCCC1)N1CCN2C(=O)OC(c3ccccc3)(c3ccccc3)C2C1` (centres unmarked) [Example 147, N-[2-(Hexahydro-1H-azepin-1-yl)ethyl]tetrahydro-3-oxo-1,1-diphenyl-3H-oxazolo[3,4-a]pyrazine-7(1H)-carboxamide], the negative logarithm of the IC50 (pIC50) in test [1] was not below 6.00.
